Experimental data from the NIST ThermoML archive (doi:10.1016/j.jct.2019.01.004).
Numbers after ± are expanded uncertainties.

Conditions: Liquid, Ebulliometric method (Recirculating still)

| SMILES | vapor or sublimation pressure (337.68 K) [kPa] | vapor or sublimation pressure (352.62 K) [kPa] |
| --- | --- | --- |
| CO [methanol] | 101.3 ± 3.7 |  |
| CCC(=O)OC [methyl propanoate] |  | 101.3 ± 3.7 |
